Like-named read-outs stand apart in the source and are kept apart here. Blank lines part the entries; values can stand above or below the compound they belong to.
What was measured:
[1] = system: platelet aggregation induced by collagen; test: Anti-platelet aggregation assay, collagen-induced; assay type: cell-based; settings: for IC50 / Collagen Inhibition Rate (%) ± SD: platelet aggregation induced by 0.33 U/mL collagen; for IC50: 4 working concentrations; for Collagen Inhibition Rate (%) ± SD: mean ± SD of three values
Experimental: (§1) Furthermore, the target compounds 10–13 were capable of inhibiting the platelet aggregation induced by 10 μM ADP and 0.33 U/mL collagen.
(§2) The anti-platelet aggregation assays were performed according to the method reported by XIE et al. (Supplementary Materials).

[2] = system: platelet aggregation induced by ADP; test: Anti-platelet aggregation assay, ADP-induced; assay type: cell-based; settings: for IC50 / ADP Inhibition Rate (%) ± SD: platelet aggregation induced by 10 μM ADP; for IC50: 4 working concentrations; for ADP Inhibition Rate (%) ± SD: mean ± SD of three values
Experimental: as §1, §2

human recombinant COX-2 = target: T1, human recombinant COX-2 (Homo sapiens, UniProt P35354); test: Cyclooxygenase inhibition assay (EIA kit), COX-2; assay type: biochemical; settings: human recombinant COX-2, EIA kit
T1 construct: purchased Cayman Chemical 560131
T1 sequence (P35354 18-604): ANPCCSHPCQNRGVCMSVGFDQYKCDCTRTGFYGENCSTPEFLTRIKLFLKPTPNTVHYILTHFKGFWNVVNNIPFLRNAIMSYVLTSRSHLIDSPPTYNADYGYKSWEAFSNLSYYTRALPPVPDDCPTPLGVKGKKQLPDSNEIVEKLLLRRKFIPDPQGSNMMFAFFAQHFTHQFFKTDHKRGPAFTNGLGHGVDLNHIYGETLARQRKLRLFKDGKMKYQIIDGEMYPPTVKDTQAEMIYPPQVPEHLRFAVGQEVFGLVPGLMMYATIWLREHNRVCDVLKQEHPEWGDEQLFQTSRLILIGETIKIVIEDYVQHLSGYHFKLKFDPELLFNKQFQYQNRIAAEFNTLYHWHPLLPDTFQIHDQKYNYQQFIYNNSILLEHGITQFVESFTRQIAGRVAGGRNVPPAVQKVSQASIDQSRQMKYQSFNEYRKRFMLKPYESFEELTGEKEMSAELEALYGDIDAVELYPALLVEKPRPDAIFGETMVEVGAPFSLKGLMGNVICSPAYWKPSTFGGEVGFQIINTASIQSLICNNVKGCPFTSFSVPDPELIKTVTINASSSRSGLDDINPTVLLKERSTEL

human recombinant COX-1 = test: Cyclooxygenase inhibition assay (EIA kit), COX-1; assay type: biochemical; settings: COX-1 over COX-2
COX-1 = settings: cited from earlier work; for selectivity index: COX-1 selectivity
COX-2 = settings: cited from earlier work
[3] = previous examples of Figure 1, read-out: IC50 COX-1

IC50 [1]: 510 nM | IC50 [2]: 490 nM
SMILES: CC(=O)Oc1ccccc1C(=O)O [Aspirin]
Collagen Inhibition Rate (%) ± SD [1]: 64.3 ± 1.38% | ADP Inhibition Rate (%) ± SD [2]: 92.36 ± 1.5%

IC50 (human recombinant COX-2): 11.3 µM | IC50 [1]: 620 nM | IC50 [2]: 370 nM | COX1 Selectivity Index (human recombinant COX-1): 5.86
SMILES: O=S(=O)(Nc1ncccn1)c1ccc(/N=C/c2ccco2)cc1 [Compound 10, (E)-4-(Furan-2-ylmethyleneamino)-N-(pyrimidin-2-yl)benzenesulfonamide]
Collagen Inhibition Rate (%) ± SD [1]: 89.36 ± 1.23% | ADP Inhibition Rate (%) ± SD [2]: 78.36 ± 1.36%

IC50 (human recombinant COX-2): 15.2 µM | IC50 [1]: 1030 nM | IC50 [2]: 250 nM | COX1 Selectivity Index (human recombinant COX-1): 3.16
SMILES: O=S(=O)(Nc1ncccn1)c1ccc(/N=C/c2ccccc2O)cc1 [Compound 11, (E)-4-(2-Hydroxybenzylideneamino)-N-(pyrimidin-2-yl)benzenesulfonamide]
Collagen Inhibition Rate (%) ± SD [1]: 76.35 ± 1.34% | ADP Inhibition Rate (%) ± SD [2]: 84.36 ± 1.64%

IC50 (human recombinant COX-2): 13.3 µM | IC50 [1]: 120 nM | IC50 [2]: 110 nM | COX1 Selectivity Index (human recombinant COX-1): 18.69
SMILES: O=S(=O)(Nc1cnc2ccccc2n1)c1ccc(/N=C/c2ccco2)cc1 [Compound 12, (E)-4-(Furan-2-ylmethyleneamino)-N-(quinoxalin-2-yl)benzenesulfonamide]
activity compared to aspirin, collagen ([1]; fold versus aspirin): 4.25 folds | Collagen Inhibition Rate (%) ± SD [1]: 95.9 ± 1.39% | reactivity compared to aspirin, ADP ([2]; fold versus aspirin): 4.45 folds | ADP Inhibition Rate (%) ± SD [2]: 98.1 ± 1.68%

IC50 (human recombinant COX-2): 9.26 µM | COX1 Selectivity Index (human recombinant COX-1): 2.87
SMILES: O=S(=O)(Nc1cnc2ccccc2n1)c1ccc(/N=C/c2ccccc2O)cc1 [Compound 13, (E)-4-(2-Hydroxybenzylideneamino)-N-(quinoxalin-2-yl)benzenesulfonamide]
Collagen Inhibition Rate (%) ± SD [1]: 45.36 ± 1.56% | ADP Inhibition Rate (%) ± SD [2]: 46.32 ± 1.32%

SMILES: Oc1ccc(/C=C/c2cc(O)cc(O)c2)cc1 [Compound II]
selectivity index (COX-1): around 200 folds | IC50 (COX-1; read-out: IC50 COX-1): 15 µM

SMILES: Nc1ccc(S(=O)(=O)Nc2ccc(Cl)cc2)cc1 [Compound I]
selectivity index (COX-1): approximately 100 folds | IC50 (COX-1; read-out: IC50 COX-1): 12 µM

SMILES: COc1ccc(-c2nc3ccccc3nc2-c2ccc(S(C)(=O)=O)cc2)cc1 [III]
IC50 (COX-1; [3]): > 30 µM | IC50 (COX-2; previous examples of Figure 1): 400 nM

SMILES: COc1ccc(-c2ncc(C)nc2-c2ccc(S(N)(=O)=O)cc2)cc1 [IV]
IC50 (COX-1; [3]): 97 µM | IC50 (COX-2; previous examples of Figure 1): 460 nM

SMILES: CS(=O)(=O)c1ccc(-c2nc(NCc3ccc(F)cc3)cc(C(F)(F)F)n2)cc1 [IX]
COX-1 activity (COX-1; previous examples of Figure 1): not active | IC50 (COX-2; previous examples of Figure 1): 7 nM

SMILES: Cc1cnc2c(-c3ccc(F)cc3)c(-c3ccc(S(C)(=O)=O)cc3)nn2c1C [VIII]
IC50 (COX-1; read-out: IC50 COX-1): 13 µM | IC50 (COX-2): 600 nM

SMILES: NS(=O)(=O)c1ccc(-c2nc(Cl)cc(NCc3cccs3)n2)cc1 [VI]
SI (COX-2; COX-2 selectivity, Figure 1): > 81,300 | IC50 (COX-2; previous examples of Figure 1): 1.2 nM

SMILES: NS(=O)(=O)c1ccc(-c2nccnc2-c2ccc(F)cc2)cc1 [V]
IC50 (COX-1; [3]): > 300 µM | IC50 (COX-2; previous examples of Figure 1): 1070 nM

SMILES: COc1ccc(-n2cc(-c3ccco3)c(C(F)(F)F)n2)cc1 [XI]
IC50 (COX-1; read-out: IC50 COX-1): 3.4 µM | IC50 (COX-2; Figure 1): > 50000 nM

SMILES: Nc1onc(-c2ccc(Cl)o2)c1-c1ccccc1 [X]
IC50 (COX-1; read-out: IC50 COX-1): 1.1 µM | IC50 (COX-2; Figure 1): > 50000 nM
